The numbers were not newly measured in patent US11497806B2, “Immunization agents and methods of use” (priority 2014, dated 2022), which cites them from elsewhere.

For data set [1], the target named is T1, transactivator (Homo sapiens, UniProt P06401).
T1 construct: host or cells: rat (in vivo)
The conditions noted are these: rats.

Data set [2] concerns luciferase target gene. The conditions noted are these: heat treatment in the presence but not in the absence of mifepristone; FIG. 2.

Read-outs that look alike come from different tables or passages of the source.

T1 sequence (P06401 640-891, added parts left off): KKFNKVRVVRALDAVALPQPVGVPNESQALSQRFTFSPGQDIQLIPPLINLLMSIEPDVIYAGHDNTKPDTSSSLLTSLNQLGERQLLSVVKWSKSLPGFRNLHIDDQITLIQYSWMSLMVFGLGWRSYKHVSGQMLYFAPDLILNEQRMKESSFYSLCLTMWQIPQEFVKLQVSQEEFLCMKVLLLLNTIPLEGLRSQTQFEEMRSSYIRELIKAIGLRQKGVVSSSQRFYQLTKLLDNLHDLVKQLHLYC

Consider `CC#C[C@]1(O)CC[C@H]2[C@@H]3CCC4=CC(=O)CCC4=C3[C@@H](c3ccc(N(C)C)cc3)C[C@@]21C` [mifepristone], for which the “Amount reaching an effective concentration” value in data set [1] (i.p.) was 5 µg/kg; in data set [1] (orally), “about 10 μg/kg”. In addition, the “Target gene expression after heat treatment” value in data set [2] was “resulted in activation of target gene expression”.
